Counter-ions that a name gives are not always drawn. Like-named read-outs stand apart in the source and are kept apart here. One block for each compound: values may come before it.
Tests used:
Leukotriene D4 Receptor = target: T1, Leukotriene D4 Receptor (Cavia porcellus, UniProt Q2NNR5); test: Leukotriene D4 Receptor Binding Inhibition Test; design: species or system guinea pig; settings: for inhibition at 10 µM: read-out: LTD4 receptor, inhibition rate (%) at a high concentration
T1 construct: guinea pig pulmomembranous protein; from tissue; host or cells: guinea pig lung membranes
T1 sequence (Q2NNR5 1-340): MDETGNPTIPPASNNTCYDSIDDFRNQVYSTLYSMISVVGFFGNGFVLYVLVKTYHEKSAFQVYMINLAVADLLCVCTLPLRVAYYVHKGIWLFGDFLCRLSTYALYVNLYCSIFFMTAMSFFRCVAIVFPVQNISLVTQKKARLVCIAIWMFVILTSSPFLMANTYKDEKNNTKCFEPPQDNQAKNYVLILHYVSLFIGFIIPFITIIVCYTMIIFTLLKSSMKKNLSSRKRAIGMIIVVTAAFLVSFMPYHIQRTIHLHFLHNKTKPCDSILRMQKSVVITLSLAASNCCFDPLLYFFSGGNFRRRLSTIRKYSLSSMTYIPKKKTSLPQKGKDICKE
Procedure: An ice-cold tris hydrochloride/sodium chloride buffer (10 mM/100 mM, pH 7.5) was added to terminate the reaction, followed by immediate filtration through a Wattman CF/C filter. The filter was washed twice with 20 ml aliquots of the ice-cold buffer. The radio-activity of the residue was measured by a liquid scintillation counter. […] Using the Cheng-Prusoff formula, a dissociation constant (KD) was calculated from the IC50.

[1] = tested on: isolated guinea pig ileum; test: Antileukotriene D4 Action (In vitro Test): isotonic contractive response of isolated ileum to leukotriene D4; format: cell-based; settings: Cavia porcellus, 0.5 h, Krebs buffer 37° C., 30 minutes incubation with test compound, read-out: Anti-LTD4 action (IC50 value)
Procedure: Antileukotriene D4 Action (In vitro Test)
An isolated guinea pig ileum was cut into about 2 cm lengths. Each ileum piece was suspended in a 20-ml organ bath filled with the Krebs buffer. […] The Krebs buffer was controlled at 37° C., through which a mixed gas (95%O2 -5%CO2) was bubbled. First, leukotriene D4 was added to an organ bath to measure its dose-response. After the ileum piece was washed several times with the buffer, a test compound (will be identified by its example number; this will apply likewise hereinafter) of a predetermined specific concentration was added.

airway constriction = settings: cited from earlier work
[2] = read-out: LTD4 receptor, dissociation constant KD

Compound: O=C(O)c1ccc(O)c(C(=O)/C=C/c2ccc(OCc3ccccc3)cc2)c1 [Example 4, 4-Benzyloxy-5'-carboxy-2'-hydroxychalcone]
- inhibition at 10 µM (Leukotriene D4 Receptor): 23%

Compound: O=C(O)c1ccc(O)c(C(=O)/C=C/c2ccccc2OCc2ccccc2)c1 [Example 6, 2-Benzyloxy-5'-carboxy-2'-hydroxychalcone]
- inhibition at 10 µM (Leukotriene D4 Receptor): 0%

Compound: CCOCCn1c(COc2ccc(C=CC(=O)c3cc(-c4nn[nH]n4)ccc3O)cc2)nc2ccccc21 [Example 23]
- IC50 [1]: 480 nM

Compound: O=C(/C=C/c1ccc(OCc2ccc3ccccc3c2)cc1)c1cc(-c2nnn[nH]2)ccc1O [Example 26, 2'-Hydroxy-4-(2-naphthyl-methoxy)-5'-(5-tetrazolyl)-chalcone]
- inhibition at 10 µM (Leukotriene D4 Receptor): 4%

Compound: CCCCOc1ccc(C(=O)O)cc1C(=O)C=Cc1ccc(OCc2ccc3ccccc3n2)cc1 [Example 32, 2'-n-Butoxy-5'-carboxy-4-(2-quinolylmethoxy)chalcone.HCl]
- inhibition at 10 µM (Leukotriene D4 Receptor): 41%

Compound: CCOCCn1c(COc2cccc(C=CC(=O)c3ccc(C(=O)O)cc3O)c2)nc2ccccc21 [Example 37, 4'-Carboxy-3-[(1-ethoxyethyl-benzimidazol-2-yl)methoxy]-2'-hydroxychalcone.HCl]
- inhibition at 10 µM (Leukotriene D4 Receptor): 26%

Compound: O=C(O)c1cccc(C(=O)/C=C/c2cccc(C=Cc3ccc4ccccc4n3)c2)c1O [Example 40, 3'-carboxy-2'-hydroxy-3-[(2-quinolyl)-ethenyl]chalcone]
- IC50 [1]: 120 nM

Compound: CCCCC/C=C\C\C=C/C=C/C=C/[C@@H](SC[C@H](NC(=O)CC[C@H](N)C(=O)O)C(=O)NCC(=O)O)[C@@H](O)CCCC(=O)O [LTC4]
- effects on airway constriction relative to histamine (airway constriction; when inhaled, compared with histamine): 1,000 times

Compound: CCCCC/C=C\C\C=C/C=C/C=C/[C@@H](SC[C@H](N)C(=O)O)[C@@H](O)CCCC(=O)O [LTE4]
- duration of airway constriction (airway constriction; compared with that caused by the other leukotrienes): long lasting
- activity compared with the other leukotrienes (airway constriction; compared with the other leukotrienes): lower activities

Compound: [^3 H]leukotriene D4 [reference compound]
- slope of Hill plot (Leukotriene D4 Receptor; [^3 H]leukotriene D4 binding): 0.99
- Kd (Leukotriene D4 Receptor; read-out: dissociation constant (KD) of [^3 H]leukotriene D4, radioligand, guinea pig pulmomembranous protein): 0.262 nM

Other lines, results leading:

- inhibition at 10 µM (Leukotriene D4 Receptor): 18%
Compound: O=C(O)c1ccc(O)c(C(=O)/C=C/c2ccccc2OCc2ccc3ccccc3n2)c1 [Example 3, 5'-Carboxy-2'-hydroxy-2-[(2-quinolyl)methoxy]chalcone]

- Kd (Leukotriene D4 Receptor; [2]): 307 nM
Compound: O=C(O)c1cccc(C(=O)/C=C/c2ccc(OCc3ccc4ccccc4n3)cc2)c1O [Example 7, 3'-Carboxy-2'-hydroxy-4-[(2-quinolyl)methoxy]chalcone]

- Kd (Leukotriene D4 Receptor; [2]): 396 nM
Compound: O=C(O)c1cc(F)cc(C(=O)/C=C/c2ccc(OCc3ccc4ccccc4n3)cc2)c1O [Example 8, 3'-Carboxy-5'-fluoro-2'-hydroxy-4-[(2-quinolyl)methoxy]chalcone]

- Kd (Leukotriene D4 Receptor; [2]): 732 nM
Compound: O=C(O)c1cc(Cl)cc(C(=O)/C=C/c2ccc(OCc3ccc4ccccc4n3)cc2)c1O [Example 9, 3'-Carboxy-5'-chloro-2'-hydroxy-4-[(2-quinolyl)methoxy]chalcone]

- inhibition at 10 µM (Leukotriene D4 Receptor): 16%
Compound: CCOC(=O)c1ccc(O)c(C(=O)C=Cc2ccc(OCc3ccc4ccccc4n3)cc2)c1 [Example 17]

- IC50 [1]: 67 nM
Compound: O=C(/C=C/c1ccc(OCc2ccc3ccccc3n2)cc1)c1cc(-c2nnn[nH]2)ccc1O [Example 19, 2'-Hydroxy-4-[(2-quinolyl)-methoxy]-5'-(5-tetrazolyl)-chalcone]

- IC50 [1]: 290 nM
Compound: COc1ccc(C(=O)O)cc1C(=O)/C=C/c1ccc(OCc2ccc3ccccc3n2)cc1 [Example 29, 5'-Carboxy-2'-methoxy-4-[(2-quinolyl)methoxy]chalcone]

- inhibition at 10 µM (Leukotriene D4 Receptor): 8%
Compound: N#Cc1cccc(C(=O)/C=C/c2ccc(OCc3ccc4ccccc4n3)cc2)c1 [Example 35, 3'-cyano-4-(2-quinolylmethoxy)-chalcone]

- inhibition at 10 µM (Leukotriene D4 Receptor): 6%
Compound: N#Cc1cccc(C(=O)/C=C/c2cccc(OCc3ccc4ccccc4n3)c2)c1 [Example 36, 3'-Cyano-3-(2-quinolylmethoxy)-chalcone]

- inhibition at 10 µM (Leukotriene D4 Receptor): 38%
Compound: N#Cc1ccc(O)c(C(=O)/C=C/c2cccc(OCc3ccc4ccccc4n3)c2)c1 [Example 58, 5'-Cyano-2'-hydroxy-3-[(2-quinolyl)methoxy]chalcone]
